Laboratory results reported in PubChem BioAssay (NCI).
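These data come from cells grown in 96-well plates and exposed to compound for 48 hours at five concentrations. At the GI50, growth is halved. TGI denotes the concentration required for complete inhibition of growth.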

Columns and labels:
Test in all cases: NCI tumour cell line growth inhibition, 48 h
786-0 renal = tested on: 786-0 renal
A498 renal = tested on: A498 renal
A549 NSCLC = tested on: A549 NSCLC
ACHN renal = tested on: ACHN renal
BT-549 breast = tested on: BT-549 breast
CAKI-1 renal = tested on: CAKI-1 renal
CCRF-CEM leukemia = tested on: CCRF-CEM leukemia
COLO 205 colon = tested on: COLO 205 colon
DU-145 prostate = tested on: DU-145 prostate
EKVX NSCLC = tested on: EKVX NSCLC
HCC-2998 colon = tested on: HCC-2998 colon
HCT-116 colon = tested on: HCT-116 colon
HCT-15 colon = tested on: HCT-15 colon
HL-60(TB) leukemia = tested on: HL-60(TB) leukemia
HOP-62 NSCLC = tested on: HOP-62 NSCLC
HOP-92 NSCLC = tested on: HOP-92 NSCLC
HS 578T breast = tested on: HS 578T breast
HT29 colon = tested on: HT29 colon
IGROV1 ovarian = tested on: IGROV1 ovarian
K-562 leukemia = tested on: K-562 leukemia
KM12 colon = tested on: KM12 colon
LOX IMVI melanoma = tested on: LOX IMVI melanoma
M14 melanoma = tested on: M14 melanoma
MALME-3M melanoma = tested on: MALME-3M melanoma
MCF7 breast = tested on: MCF7 breast
MDA-MB-231 breast = tested on: MDA-MB-231 breast
MDA-MB-435 = tested on: MDA-MB-435
MOLT-4 leukemia = tested on: MOLT-4 leukemia
NCI-H226 lung = tested on: NCI-H226 lung
NCI-H23 lung = tested on: NCI-H23 lung
NCI-H460 lung = tested on: NCI-H460 lung
NCI-H522 lung = tested on: NCI-H522 lung
NCI/ADR-RES ovarian = tested on: NCI/ADR-RES ovarian
OVCAR-3 ovarian = tested on: OVCAR-3 ovarian
OVCAR-4 ovarian = tested on: OVCAR-4 ovarian
OVCAR-5 ovarian = tested on: OVCAR-5 ovarian
OVCAR-8 ovarian = tested on: OVCAR-8 ovarian
PC-3 prostate = tested on: PC-3 prostate
RPMI-8226 leukemia = tested on: RPMI-8226 leukemia
RXF 393 renal = tested on: RXF 393 renal
SF-268 CNS = tested on: SF-268 CNS
SF-295 CNS = tested on: SF-295 CNS
SF-539 CNS = tested on: SF-539 CNS
SK-MEL-2 melanoma = tested on: SK-MEL-2 melanoma
SK-MEL-28 melanoma = tested on: SK-MEL-28 melanoma
SK-MEL-5 melanoma = tested on: SK-MEL-5 melanoma
SK-OV-3 ovarian = tested on: SK-OV-3 ovarian
SNB-19 CNS = tested on: SNB-19 CNS
SNB-75 CNS = tested on: SNB-75 CNS
SR leukemia = tested on: SR leukemia
SW-620 colon = tested on: SW-620 colon
T-47D breast = tested on: T-47D breast
TK-10 renal = tested on: TK-10 renal
U251 CNS = tested on: U251 CNS
UACC-257 melanoma = tested on: UACC-257 melanoma
UACC-62 melanoma = tested on: UACC-62 melanoma
UO-31 renal = tested on: UO-31 renal

## COC1CC(O[C@H]2CC[C@@]3(C)[C@H](CC[C@@H]4[C@@H]3CC[C@]3(C)[C@@H](C5=CC(=O)OC5)[C@@H](OC(C)=O)C[C@]43O)C2)OC(C)C1O (stereo partly specified)
786-0 renal
  GI50: < 0.01 µM
  TGI: < 0.01 µM
A498 renal
  GI50: < 0.01 µM
  TGI: < 0.0137 µM
A549 NSCLC
  GI50: < 0.01 µM
  TGI: < 0.01 µM
ACHN renal
  GI50: < 0.01 µM
  TGI: < 0.01 µM
BT-549 breast
  GI50: < 0.01 µM
  TGI: < 0.01 µM
CAKI-1 renal
  GI50: < 0.01 µM
  TGI: < 0.01 µM
CCRF-CEM leukemia
  GI50: < 0.01 µM
COLO 205 colon
  GI50: < 0.01 µM
  TGI: < 0.01 µM
DU-145 prostate
  GI50: < 0.01 µM
  TGI: < 0.01 µM
EKVX NSCLC
  GI50: < 0.01 µM
  TGI: < 0.01 µM
HCC-2998 colon
  GI50: < 0.01 µM
  TGI: < 0.0187 µM
HCT-116 colon
  GI50: < 0.01 µM
  TGI: < 0.01 µM
HCT-15 colon
  GI50: < 0.01 µM
  TGI: < 0.01 µM
HL-60(TB) leukemia
  GI50: < 0.01 µM
  TGI: < 0.0331 µM
HOP-62 NSCLC
  GI50: < 0.01 µM
  TGI: < 0.01 µM
HOP-92 NSCLC
  GI50: < 0.01 µM
  TGI: < 0.01 µM
HS 578T breast
  GI50: < 0.01 µM
  TGI: < 0.0145 µM
HT29 colon
  GI50: < 0.01 µM
  TGI: < 0.01 µM
IGROV1 ovarian
  GI50: < 0.01 µM
  TGI: < 0.01 µM
K-562 leukemia
  GI50: < 0.01 µM
  TGI: < 0.0135 µM
KM12 colon
  GI50: < 0.01 µM
  TGI: < 0.0106 µM
LOX IMVI melanoma
  GI50: < 0.01 µM
  TGI: < 0.01 µM
M14 melanoma
  GI50: < 0.01 µM
  TGI: < 0.0106 µM
MALME-3M melanoma
  GI50: < 0.01 µM
  TGI: < 0.01 µM
MCF7 breast
  GI50: < 0.01 µM
  TGI: < 0.0117 µM
MDA-MB-231 breast
  GI50: < 0.01 µM
  TGI: < 0.0155 µM
MDA-MB-435
  GI50: < 0.01 µM
  TGI: < 0.0109 µM
MOLT-4 leukemia
  GI50: < 0.01 µM
  TGI: < 0.01 µM
NCI-H226 lung
  GI50: < 0.01 µM
  TGI: < 0.01 µM
NCI-H23 lung
  GI50: < 0.01 µM
  TGI: < 0.01 µM
NCI-H460 lung
  GI50: < 0.01 µM
  TGI: < 0.01 µM
NCI-H522 lung
  GI50: < 0.01 µM
  TGI: < 0.01 µM
NCI/ADR-RES ovarian
  GI50: < 0.01 µM
  TGI: < 0.01 µM
OVCAR-3 ovarian
  GI50: < 0.01 µM
  TGI: < 0.01 µM
OVCAR-4 ovarian
  GI50: < 0.01 µM
  TGI: < 0.01 µM
OVCAR-5 ovarian
  GI50: < 0.01 µM
  TGI: < 0.01 µM
OVCAR-8 ovarian
  GI50: < 0.01 µM
  TGI: < 0.01 µM
PC-3 prostate
  GI50: < 0.01 µM
  TGI: < 0.01 µM
RPMI-8226 leukemia
  GI50: < 0.01 µM
RXF 393 renal
  GI50: < 0.01 µM
  TGI: < 0.01 µM
SF-268 CNS
  GI50: < 0.01 µM
  TGI: < 0.01 µM
SF-295 CNS
  GI50: < 0.01 µM
  TGI: < 0.01 µM
SF-539 CNS
  GI50: < 0.01 µM
  TGI: < 0.01 µM
SK-MEL-2 melanoma
  GI50: < 0.01 µM
  TGI: < 0.0105 µM
SK-MEL-28 melanoma
  GI50: < 0.01 µM
  TGI: < 0.01 µM
SK-MEL-5 melanoma
  GI50: < 0.01 µM
  TGI: < 0.01 µM
SK-OV-3 ovarian
  GI50: < 0.01 µM
  TGI: < 0.01 µM
SNB-19 CNS
  GI50: < 0.01 µM
  TGI: < 0.01 µM
SNB-75 CNS
  GI50: < 0.01 µM
  TGI: < 0.01 µM
SR leukemia
  GI50: < 0.01 µM
SW-620 colon
  GI50: < 0.01 µM
  TGI: < 0.01 µM
T-47D breast
  GI50: < 0.01 µM
  TGI: < 0.01 µM
TK-10 renal
  GI50: < 0.01 µM
  TGI: < 0.01 µM
U251 CNS
  GI50: < 0.01 µM
  TGI: < 0.01 µM
UACC-257 melanoma
  GI50: < 0.01 µM
  TGI: < 0.01 µM
UACC-62 melanoma
  GI50: < 0.01 µM
  TGI: < 0.01 µM
UO-31 renal
  GI50: < 0.01 µM
  TGI: < 0.01 µM
